Assay results from US8614222B2, “Methods of preventing and treating low bone mass diseases” (The Trustees of Columbia University in the City of New York, priority 2008, dated 2013).
Entries after “also recorded” stand apart in the source; their conditions may differ.

Experiments:
peripheral serotonin [1] = assay: Effect of CBMIDA and pCPA on peripheral (serum) serotonin in mice (Example 1); format: in vivo; conditions: for reduction of peripheral (serum) serotonin: 250 mg/kg orally
Description: One month old C57B1/6 inbred male mice, weighing 15-16 g were used in the experiments. Animals were housed under 12 h light/12 h dark conditions in a room with controlled temperature (22° C.) and humidity (60%). Mice had ad libitum access to food and water, and were used after a minimum of 4 days of acclimatization to the housing conditions. All experiments were conducted following Columbia University Guidelines for the Animal Use and Care of laboratory mice.
(§1) Before the experiments, animals were separated into individual cages one day prior to the experiment. Compounds were fed orally (gavage) to the mouse, calculated according to the weight of the mouse, twice a day at 1700 h and at 1100 h. […] This route created two potential barriers for the compound to reach the brain. […] Control animals received the same volume of vehicle. Blood was collected through heart puncture on isofluorane-anaesthesized animals and allowed to clot for 5 minutes on ice. The serum was separated, snap chilled in liquid nitrogen and frozen at −80° C. till analyzed. Brainstems from all the animals were collected and processed for brain serotonin measurement through HPLC.
The Serotonin ELISA kit obtained from the Fitzgerald company was used to measure derivatized serotonin from serum. Derivatization is part of the sample preparation. Serotonin present in the serum was first quantitatively acylated into N-Acylserotonin using the acylation reagent. The principle of the assay is based on competitive ELISA, wherein serotonin that is bound to the solid phase of the plate and the N-acylserotonin compete for the fixed number of antiserum binding sites. When the reaction is in equilibrium, free antigen and free antigen-antiserum complexes are removed by washing.
The antibody bound to the solid phase serotonin is then detected using antirabbit/peroxidase. The substrate TMB/Peroxidase reaction is read at 450 nm. The amount of antibody bound to the solid phase serotonin is inversely proportional to the concentration of serotonin in the sample.
Catechol-3,6-bis methyleneiminodiacetic acid (CBMIDA) (basic structure is an EDTA-like compound and the catechol ring is at the centre) synthesized at the Columbia University Chemistry division, and para-chlorophenylalanine (pCPA) obtained from Sigma Aldrich Corp. were used. Each compound was dissolved with twice molar solution of NaHCO3 in water and given to mouse orally at 250 and 500 mg/kg/dose.

brain serotonin = assay: Brain serotonin / blood brain barrier after oral pCPA in mice; format: in vivo; conditions: 250 mg/kg orally
Description: as §1

Lrp5−/− mice = assay: pCPA treatment of Lrp5−/− and WT mice; format: in vivo
Description: Consistent with the conclusion that the increase in serum serotonin level is responsible fully or partly for the bone phenotype of the Lrp5−/− mice is the discovery that pCPA, a serotonin synthesis inhibitor (Eldridge et al., 1981, Ann. Rev. Physiol. 43:121-135), prevented the appearance of the Lrp5−/− bone phenotype by decreasing serotonin production. WT and Lrp5−/− mice were treated with 300 mg/kg pCPA intraperitoneally three times per week, from 3 weeks to 12 weeks of age (FIG. 7A) and the changes in serum serotonin levels, TPH1 expression in gut and TPH2 expression in brain stem were analyzed. Bone histomorphometry was also performed. […] This rescue of the Lrp5−/− phenotype was achieved by normalization of the gut TPH1 mRNA and of serum serotonin levels (FIGS. 7C and 7D).
Generation of Lrp5−/− (Kato et al., 2002, J. Cell Biol. 157:303-314) β-cateninfloxed/floxed (Glass et al., 2005, Dev. Cell 8:751-764), α1(I)collagen-cre transgenic (Dacquin et al., 2002, Dev. Dyn. 224:245-251) and Htt−/− (Ansorge et al., 2008, J. Neurosci. 28:199-207) mice were as described previously. Lrp5+/−;Htt+/− double heterozygous mice were generated by crossing Lrp5+/− and Htt+/− mice. Three week-old Wt or Lrp5−/− mice were administered pCPA on alternate days for 9 weeks by i.p. All animal protocols were approved by the Animal Care Committees of Columbia University.
Static histomorphometry measurements were performed as previously described in accordance with standard nomenclature, using the Osteomeasure Analysis System (Osteometrics, Inc) (Ducy et al., 2000, Cell 100:197-207). Four to 9 animals were assigned per group.
(§2) Serotonin serum levels were quantified using immunoassay kits from Fitzgerald (Serotonin) and serotonin levels in the different regions of the brain were quantified by HPLC method as described previously (Mann et al., 1992, Arch. Gen. Psychiatry 49:442-446).

peripheral serotonin [2] = assay: Peripheral serotonin levels in wild-type mice (Example 11); format: in vivo; conditions: 5 mice per compound
Description: as §2
The following three compounds were tested for their ability to effect peripheral serotonin levels in wild-type mice:
Also tested as a negative control was vehicle alone. Each compound as well as vehicle was administered to 5 mice and the resulting peripheral serotonin levels were as follows: […]

primary osteoblasts = assay: Real-time PCR of gene expression in primary osteoblasts treated with serotonin; format: cell-based, mouse; conditions: serotonin 50 to 100 μM, 24 hr
Description: Calvaria osteoblasts were extracted by triple collagenase/trypsine digestion from 4 day-old CD1 pups and differentiated with ascorbic acid as previously described (Duey et al., 2000, Cell 100:197-207).
(§3) Osteoblasts were treated in serum-free medium with vehicle or Serotonin (50 to 100 μM, Sigma) for 24 hr. Total RNA were extracted with Trizol (Invitrogen). cDNA were generated using the ABI Reverse transcriptase system and random hexanucleotide primers. Real-time PCR was performed using superarray primers on a Stratagene real time PCR cycler and Actin expression was used as endogenous control. Chromatin immunoprecipitation assays (ChIP) were performed by standard procedures using primary osteoblasts. Microarray analysis was performed as described previously (Glass et al., 2005, Dev. Cell 8:751-764).

CREB = CREB phosphorylation (Western blot) and CREB binding to Cyclin D1 promoter (ChIP) in primary osteoblasts; format: cell-based, mouse
Description: as §3
Osteoblasts were treated in serum-free medium with vehicle or Serotonin (50 to 100 μM, Sigma) for 24 hr. Lysates from primary osteoblasts or crushed frozen bones were prepared in RIPA buffer in the presence of protease and phosphatase inhibitors. Twenty to 60 μg of proteins were separated by SDS-PAGE in reducing conditions and transferred on nitrocellulose membrane using standard protocols. Membranes were incubated with primary antibodies including total or anti-Phospho CREB (Cell Signaling Technology).

rb 5-HT1B receptors = rb 5-HT1B receptors (Oryctolagus cuniculus, UniProt P49144); conditions: cited from earlier work
rb 5-HT1B receptors, sequence (P49144 whole entry): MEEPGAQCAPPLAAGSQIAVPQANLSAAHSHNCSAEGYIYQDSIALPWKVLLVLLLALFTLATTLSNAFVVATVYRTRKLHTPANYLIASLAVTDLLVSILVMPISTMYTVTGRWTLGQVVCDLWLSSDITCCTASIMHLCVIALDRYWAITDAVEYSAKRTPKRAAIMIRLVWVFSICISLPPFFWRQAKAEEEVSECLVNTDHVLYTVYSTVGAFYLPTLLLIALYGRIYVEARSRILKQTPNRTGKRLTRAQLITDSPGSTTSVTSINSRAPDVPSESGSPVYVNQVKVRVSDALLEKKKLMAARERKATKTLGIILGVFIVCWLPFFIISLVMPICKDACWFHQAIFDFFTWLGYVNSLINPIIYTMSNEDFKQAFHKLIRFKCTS

ovariectomized rats = assay: Curative regimen in ovariectomized rats (histomorphometry, μCT, biomechanical testing); format: in vivo; conditions: OVX rats
Description: Virgin female Sprague-Dawley rats (National Institute of Nutrition, Hyderabad, India) were obtained at 3 months of age and allowed to acclimate to the facility for 1 week before study initiation and surgical procedures. They were housed under a 12 hour:12 hour light:dark cycle and provided throughout the study with water and PMI (Purina Mills, Incorporated) Certified Rodent Laboratory Chow. Rats were subjected to either bilateral ovariectomy or a sham operation under isoflurane anesthesia. […] The rats were divided into two groups of sham-operated and ovariectomized animals and left untreated for 3 weeks to allow bone loss to occur. One group of sham and one group of ovariectomized rats (n=10/group) were killed as baseline controls to determine bone loss before the start of LP-533,401 or PTH administration. The remaining animals (n=5-10/group) received vehicle or LP-533,401 (250 mg/kg/day) by gavage, or recombinant human PTH (80 ug/kg) by daily subcutaneous (s.c.) injection for 4 weeks. The 80 ug/kg dose of PTH was selected as being optimal for reversal of ovariectomy-induced bone loss in rats based on previous studies, while the dose of LP-533,401 was selected based on the effective dose for bone loss-reversal observed in mice experiments. To label bone-forming surfaces, animals were injected s.c. with calcein (8 mg/kg) at 10 and 3 days before death. Animals were killed by an overdose of Isofluorane anesthesia. The right tibia and lumbar vertebra 2 (L2) were collected, cleaned of excess soft tissue, fixed overnight in 10% formalin and processed for μCT or histomorphometric analysis. The right femur and L3 were cleaned of excess tissue and stored at −20° C. prior to biomechanical testing.
Bone histomorphometry was performed as previously described (Duey et al., 2000, Cell 100:197-207; Takeda et al., 2002, Cell 111:305-317; Parfitt et al., 1987, J. Bone Miner. Res. 2:595-610). Briefly, lumbar vertebrae were dissected, fixed for 24 hr in 10% formalin, dehydrated in graded ethanol series, and embedded in methyl methacrylate resin according to standard protocols (Parfitt et al., 1987, J. Bone Miner. Res. 2:595-610). Von Kossa/Von Gieson staining was performed using 7 μm sections for bone volume over tissue volume (BV/TV) measurement. Bone formation rate (BFR) was analyzed by the calcein double-labeling method (Ducy et al., 2000, Cell 100:197-207). Calcein (Sigma Chemical Co., St. Louis, Mo.) was dissolved in calcein buffer (0.15 M NaCl, 2% NaHCO3) and injected twice at 0.125 mg/g body weight on day 1 and 4, and then mice were killed on day 6. Unstained 4 μm sections were used for bone formation rate (BFR) measurements. For the analysis of parameters of osteoblasts and osteoclasts, 4 μm sections were stained with toluidine blue and tartrate-resistant acid phosphatase (TRAP), respectively (2). Histomorphometric analyses were performed using the Osteomeasure Analysis System (Osteometrics, Atlanta, Ga.).
Trabecular bone architecture of proximal tibia was assessed using a micro computed tomography (μCT) system (VivaCT 40, SCANCO Medical AG, Bassersdorf, Switzerland). Tibia bone specimen was stabilized with gauze in a 2 ml centrifuge tube filled with 70% ethanol and fastened in the specimen holder of the μCT scanner. One hundred μCT slices, corresponding to a 1.05 mm region distal from the growth plate, were acquired at an isotropic spatial resolution of 10.5 μm. A global thresholding technique was applied to binarize gray-scale μCT images where the minimum between the bone and bone marrow peaks in the voxel gray value histogram was chosen as the threshold value. The trabecular bone compartment was segmented by a semi-automatic contouring method and subjected to a model-independent morphological analysis (Hildebrand et al., 1999, J. Bone Miner. Res. 14:1167-1174) by the standard software provided by the manufacture of the μCT scanner. […]

[3] = 300 mg/kg i.p. three times per week, 3 to 12 weeks of age
[4] = LP-533,401 250 mg/kg/day, PTH 80 μg/kg/day

O=C(O)CN(CC(=O)O)Cc1ccc(CN(CC(=O)O)CC(=O)O)c(O)c1O [CBMIDA, Catechol-3,6-bis methyleneiminodiacetic acid]
reduction of peripheral (serum) serotonin (peripheral serotonin [1]; 4 week old mice): ~45%
reduction of peripheral serotonin (peripheral serotonin [1]; 4 week old mice, 500 mg/kg orally twice in 20 hours): about 80%
serotonin serum levels, decrease below normal (peripheral serotonin [1]; mice, 500 mg/kg orally twice daily): 80 % below normal
peripheral serotonin (peripheral serotonin [1]; oral feeding (FIG. 11)): reduces

NC(Cc1ccc(Cl)cc1)C(=O)O (stereo not shown) [pCPA, para-chlorophenylalanine]
reduction of peripheral (serum) serotonin (peripheral serotonin [1]; 4 week old mice): ~50%
serum serotonin levels, decrease below normal range (peripheral serotonin [1]; mice, oral, control inhibitor): > 60 % below normal range
crossing of the blood brain barrier (brain serotonin): did not cross the blood brain barrier
serotonin in the brain (brain serotonin): did not decrease
bone abnormalities (low bone phenotype) of Lrp5−/− mice (Lrp5−/− mice; [3]): corrected
bone mass in WT mice (Lrp5−/− mice; [3]): without overtly affecting
gut TPH1 mRNA (Lrp5−/− mice; Lrp5−/− mice, 300 mg/kg i.p.): normalization
serum serotonin levels (Lrp5−/− mice; Lrp5−/− mice, 300 mg/kg i.p., 300 mg/kg): normalizes; also recorded: normalization
Brain TPH2 mRNA levels (Lrp5−/− mice; treated mice, 300 mg/kg i.p.): not affected

Nc1nc(OC(c2ccc(-c3cccc(F)c3)cc2)C(F)(F)F)cc(-c2ccc(OC[C@H](N)C(=O)O)cc2)n1 (stereo partly drawn) [(2S)-2-amino-3-(4-(2-amino-6-(2,2,2-trifluoro-1-(3′-fluorobiphenyl-4-yl)ethoxy)pyrimidin-4-yl)phenoxy)propanoic acid]
Peripheral serotonin (ng/ml) (mean ± SEM) (peripheral serotonin [2]): 93.77 ± 12.15 ng/mL

COC(=O)C(=O)Nc1ccc(-c2cc(OC(c3ccc(-c4cccc(F)c4)cc3)C(F)(F)F)nc(N)n2)cc1 (stereo not shown) [Methyl 2-(4-(2-amino-6-(2,2,2-trifluoro-1-(3′-fluorobiphenyl-4-yl)ethoxy)pyrimidin-4-yl)phenylamino)-2-oxoacetate]
Peripheral serotonin (ng/ml) (mean ± SEM) (peripheral serotonin [2]): 23.76 ± 8.25 ng/mL

NCCc1c[nH]c2ccc(O)cc12 [serotonin, 5-hydroxytryptamine]
expression of Cyclin D1 (primary osteoblasts): decreased
expression of Cyclin D2 (primary osteoblasts): decreased
expression of Osteocalcin (primary osteoblasts): not modified
expression of Runx2 (primary osteoblasts): not modified
expression of Type I collagen (primary osteoblasts): not modified
CREB phosphorylation (CREB): significantly decreased
binding of CREB to the Cyclin D1 promoter (ChIP) (CREB): decreased

O=C(c1ccc(F)cc1)C1CCN(CCn2c(=O)[nH]c3ccccc3c2=O)CC1 [ketanserin]
behaviour at rb 5-HT1B receptors (rb 5-HT1B receptors): as silent, competitive antagonists

CSc1ccc2c(c1)C(N1CCN(C)CC1)Cc1ccccc1S2 (stereo not shown) [methiothepin]
behaviour at rb 5-HT1B receptors (rb 5-HT1B receptors): as silent, competitive antagonists

B1: PTH: recombinant human PTH, intermittent s.c. injections, standard to which bone anabolic agents are compared (protein, UniProt P01270 32-115, looked up)
Parathyroid hormone: SVSEIQLMHNLGKHLNSMERVEWLRKKLQDVHNFVALGAPLAPRDAGSQRPRKKEDNVLVESHEKSLGEADKADVNVLTKAKSQ
modifications: Parathyroid hormone
notes: recombinant human PTH, intermittent s.c. injections, standard to which bone anabolic agents are compared
number of osteoclasts per bone surface (OcS/BS) versus untreated ovariectomized rats (ovariectomized rats): similar
decrease in cortical thickness at the femur mid-shaft (ovariectomized rats; [4]): equally rescued
maximal load (femur, vertebra) (ovariectomized rats; [4]): restored to values seen in sham-operated rats
stiffness (femur, vertebra) (ovariectomized rats; [4]): restored to values seen in sham-operated rats
